Columns and labels:
[1] = tested on: Mycobacterium tuberculosis Erdman (autoluminescent); assay: total FIC50 (Loewe) at 50% inhibition, three-drug combination (log2); higher = more antagonistic
Procedure: (§1)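 DiaMOND equipotent three-drug combination dose responses (10 doses, 1.5- or 2-fold spacing, centred on IC90) against autoluminescent M. tuberculosis Erdman in 8 in vitro models. Read-out is OD600, or luminescence for the intracellular and dormancy models, normalised to untreated wells. Hill-fit Einf, AUC25 and GRinf are potency metrics; FIC50 and FIC90 are total Loewe fractional inhibitory concentrations as log2 (negative = synergy).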

[2] = tested on: Mycobacterium tuberculosis Erdman (autoluminescent); assay: total FIC90 (Loewe) at 90% inhibition, three-drug combination (log2); higher = more antagonistic
Procedure: as §1

[3] = tested on: Mycobacterium tuberculosis Erdman (autoluminescent); assay: Einf, fitted maximum growth inhibition of three-drug combination (fraction); higher = stronger maximal inhibition
Procedure: as §1

[4] = tested on: Mycobacterium tuberculosis Erdman (autoluminescent); assay: AUC25, normalised area under dose response up to IC25 (three-drug combination) (fraction (0-1)); higher = more potent at low dose
Procedure: as §1

[5] = tested on: Mycobacterium tuberculosis Erdman (autoluminescent); assay: GRinf, maximum normalised growth rate inhibition (three-drug combination) (unitless (-1 to 1)); higher = less effect (negative = killing)
Procedure: as §1

NNC(=O)c1ccncc1 [isoniazid] + COc1c(N2C[C@@H]3CCCN[C@@H]3C2)c(F)cc2c(=O)c(C(=O)O)cn(C3CC3)c12 [moxifloxacin] + CO[C@H]1/C=C/O[C@@]2(C)Oc3c(C)c(O)c4c(O)c(c(/C=N/N5CCN(C)CC5)c(O)c4c3C2=O)NC(=O)/C(C)=C\C=C\[C@H](C)[C@H](O)[C@@H](C)[C@@H](O)[C@@H](C)[C@H](OC(C)=O)[C@@H]1C [rifampicin]
Details	AUC25, [4]	Einf, [3]	GRinf, [5]	total FIC50, [1]	total FIC90, [2]
in vitro model: acidic pH 5.7, time point: constant (~7 days, model-specific)	0.0693	0.835	-0.0692	0.568	–
in vitro model: acidic pH 5.7, time point: terminal (~4-5 doublings, model-specific)	0.0605	0.974	-0.11	0.624	0.457
in vitro model: intracellular J774, time point: constant = terminal	–	0.969	-0.238	–	0.594

Details	AUC25, [4]	Einf, [3]	GRinf, [5]	total FIC50, [1]	total FIC90, [2]
in vitro model: butyrate, time point: constant (~7 days, model-specific)	0.104	0.934	-0.00353	0.315	0.977
in vitro model: butyrate, time point: terminal (~4-5 doublings, model-specific)	0.0772	0.969	0.000303	0.345	0.38
in vitro model: cholesterol 0.05 mM, time point: constant (~7 days, model-specific)	0.0843	0.603	0.0201	0.719	–
in vitro model: cholesterol 0.05 mM, time point: terminal (~4-5 doublings, model-specific)	0.0746	0.87	-0.125	1.04	0.125
in vitro model: cholesterol-high 0.2 mM, time point: constant (~7 days, model-specific)	0.0802	0.879	-0.196	0.265	–
in vitro model: cholesterol-high 0.2 mM, time point: terminal (~4-5 doublings, model-specific)	0.0682	1	-0.836	0.508	0.443
in vitro model: dormancy (butyrate + nitrate, low O2), time point: constant (~7 days, model-specific)	0.0766	0.882	0.232	0.163	-0.336
in vitro model: dormancy (butyrate + nitrate, low O2), time point: terminal (~4-5 doublings, model-specific)	0.0621	0.98	-0.102	0.14	0.342
in vitro model: standard 7H9 glycerol, time point: constant = terminal	0.0275	0.873	0.197	0.736	–
in vitro model: valerate, time point: constant (~7 days, model-specific)	0.0382	0.865	0.0264	0.773	–
in vitro model: valerate, time point: terminal (~4-5 doublings, model-specific)	0.0263	0.93	0.0382	0.731	0.407

NNC(=O)c1ccncc1 [isoniazid] + COc1c(N2C[C@@H]3CCCN[C@@H]3C2)c(F)cc2c(=O)c(C(=O)O)cn(C3CC3)c12 [moxifloxacin] + NC(=O)c1cnccn1 [pyrazinamide]
Details	AUC25, [4]	Einf, [3]	GRinf, [5]	total FIC50, [1]	total FIC90, [2]
in vitro model: acidic pH 5.7, time point: constant (~7 days, model-specific)	0.0943	0.811	-0.673	-1.74	–
in vitro model: acidic pH 5.7, time point: terminal (~4-5 doublings, model-specific)	0.0851	0.971	-0.382	-2.52	-1.33
in vitro model: intracellular J774, time point: constant = terminal	–	0.997	-0.252	–	0.681

Details	AUC25, [4]	Einf, [3]	GRinf, [5]	total FIC50, [1]	total FIC90, [2]
in vitro model: butyrate, time point: constant (~7 days, model-specific)	0.0913	0.951	-0.232	-1.78	-0.791
in vitro model: butyrate, time point: terminal (~4-5 doublings, model-specific)	0.0549	0.975	-0.195	-1.66	-1.72
in vitro model: cholesterol 0.05 mM, time point: constant (~7 days, model-specific)	0.0921	0.697	-0.188	–	–
in vitro model: cholesterol 0.05 mM, time point: terminal (~4-5 doublings, model-specific)	0.0805	0.887	-0.177	-0.327	–
in vitro model: cholesterol-high 0.2 mM, time point: constant (~7 days, model-specific)	0.0786	0.911	-0.235	0.416	–
in vitro model: cholesterol-high 0.2 mM, time point: terminal (~4-5 doublings, model-specific)	0.0668	0.981	-0.527	0.819	0.533
in vitro model: dormancy (butyrate + nitrate, low O2), time point: constant (~7 days, model-specific)	0.0724	0.877	0.245	-2.06	-2.38
in vitro model: dormancy (butyrate + nitrate, low O2), time point: terminal (~4-5 doublings, model-specific)	0.0689	0.984	-0.161	-1.92	-1.58
in vitro model: standard 7H9 glycerol, time point: constant = terminal	0.0639	0.983	-0.168	–	–
in vitro model: valerate, time point: constant (~7 days, model-specific)	0.117	0.877	0.0249	-1.97	–
in vitro model: valerate, time point: terminal (~4-5 doublings, model-specific)	0.0825	0.931	0.0159	-1.91	-1.83

NNC(=O)c1ccncc1 [isoniazid] + COc1c(N2C[C@@H]3CCCN[C@@H]3C2)c(F)cc2c(=O)c(C(=O)O)cn(C3CC3)c12 [moxifloxacin] + O=[N+]([O-])c1cn2c(n1)OC[C@@H](OCc1ccc(OC(F)(F)F)cc1)C2 [pretomanid]
Details	AUC25, [4]	Einf, [3]	GRinf, [5]	total FIC50, [1]	total FIC90, [2]
in vitro model: acidic pH 5.7, time point: constant (~7 days, model-specific)	0.105	0.752	-0.684	4.5	–
in vitro model: acidic pH 5.7, time point: terminal (~4-5 doublings, model-specific)	0.0907	0.959	-0.532	4.46	4.49
in vitro model: intracellular J774, time point: constant = terminal	–	0.994	-0.481	–	0.579

Details	AUC25, [4]	Einf, [3]	GRinf, [5]	total FIC50, [1]	total FIC90, [2]
in vitro model: butyrate, time point: constant (~7 days, model-specific)	0.0536	0.929	-0.0807	2.83	2.02
in vitro model: butyrate, time point: terminal (~4-5 doublings, model-specific)	0.0441	0.974	-0.0869	2.53	2.38
in vitro model: cholesterol 0.05 mM, time point: constant (~7 days, model-specific)	0.105	0.746	-0.26	1.75	–
in vitro model: cholesterol 0.05 mM, time point: terminal (~4-5 doublings, model-specific)	0.0994	0.957	-0.35	8.24	1.68
in vitro model: cholesterol-high 0.2 mM, time point: constant (~7 days, model-specific)	0.0779	0.892	-0.144	0.366	–
in vitro model: cholesterol-high 0.2 mM, time point: terminal (~4-5 doublings, model-specific)	0.0578	0.977	-0.646	0.407	0.342
in vitro model: dormancy (butyrate + nitrate, low O2), time point: constant (~7 days, model-specific)	0.0796	0.873	0.251	2.42	2.29
in vitro model: dormancy (butyrate + nitrate, low O2), time point: terminal (~4-5 doublings, model-specific)	0.0682	0.986	-0.111	2.34	2.6
in vitro model: standard 7H9 glycerol, time point: constant = terminal	0.0818	0.979	-0.202	1.14	0.349
in vitro model: valerate, time point: constant (~7 days, model-specific)	0.107	0.898	-0.0314	2.35	–
in vitro model: valerate, time point: terminal (~4-5 doublings, model-specific)	0.071	0.948	-0.0412	2.43	2.4
